In paper PMC2685009, “Identification and Characterization of Inhibitors of Human Apurinic/apyrimidinic Endonuclease APE1” (PLoS ONE, 2009):

How the values were obtained:
APE1 [1] = target: T1, APE1 (Homo sapiens, UniProt P27695); test: qHTS fluorogenic AP site incision assay (TAMRA/BHQ-2 red substrate, 1536-well); type: biochemical; settings: 50 nM substrate, 0.75 nM APE1; read-out: qHTS IC50 (primary screen, APE1)
T1 construct: made in house
Protocol: Recombinant human APE1 and E. coli EndoIV were purified as previously described. Deoxyoligonucleotides containing a tetrahydrofuran (THF) AP site analog, carboxytetramethyl rhodamine (TAMRA), or Black Hole Quencher-2 (BHQ-2), as appropriate (see Figure 1), were purchased from Biosearch Technologies, Inc., (Novato, CA). To create double-stranded DNA substrates, equal volumes of 200 µM solutions of the respective strands in reaction buffer were mixed and incubated at 95°C for 5 min. The annealing mixture was allowed to cool gradually to room temperature. Annealing and assay experiments were performed in the following buffer: 50 mM Tris pH 7.5, 25 mM NaCl, 2 mM MgCl2, 1 mM DTT, 0.01% Tween-20.
Initial optimizations were carried out in 384-well format at a 40 µL total reaction volume. Briefly, 30 µL of APE1 were pipetted into the plate and incubated at room temperature for 10 min; subsequently, 10 µL of substrate were added to start the reaction. The final assay concentrations of the enzyme and substrate were 0.75 nM and 50 nM, respectively. Kinetic fluorescence data were collected on a ViewLux high-throughput CCD imager (Perkin Elmer, Waltham, MA) equipped with standard FITC (excitation filter 480 nm and emission filter 530 nm) or BODIPY (excitation filter 525 nm and emission filter 598 nm) optics.
Three µl of reagents (buffer in columns 3 and 4 as negative control and APE1 in columns 1, 2, 5–48) were dispensed into a 1536-well plate. Compounds (DMSO solutions) and control (DMSO only) (23 nL) were transferred via Kalypsys pintool equipped with 1536-pin array. The plate was incubated for 15 min at room temperature, and then 1 µL of substrate (50 nM final concentration) was added to start the reaction. Library plates were screened from the lowest to highest concentration.
Screening data were corrected and normalized, and concentration–effect relationships were derived by using in-house developed, publicly available algorithms (http://www.ncgc.nih.gov/pub/openhts/curvefit/). Percent activity was computed after normalization against the uninhibited, or neutral, control (64 wells, entire columns 1 and 2) and the no-enzyme, or 100% inhibited, control (64 wells, entire columns 3 and 4), respectively. A four parameter Hill equation was fitted to the concentration-response data by minimizing the residual error between the modeled and observed responses.

APE1 [2] = target: T1, APE1; test: Radiotracer (32P, gel-based) incision assay; type: biochemical; settings: range of inhibitor concentrations, data not shown; read-out: approximate IC50 in radiotracer assay
[3] = target: unlabeled double-stranded DNA substrate; test: ThO dye-displacement assay (DNA binding); settings: 50 nM DNA, 250 nM ThO
E. coli EndoIV = target: T2, E. coli EndoIV (Escherichia coli, UniProt P0A6C1); test: E. coli Endonuclease IV (EndoIV) profiling assay; type: biochemical
T2 construct: made in house
Protocol: EndoIV enzyme and substrate (same as that used with APE1) optimization tests were initially performed at a 40 µL final volume in a 384-well format. Reaction concentrations of 2 nM EndoIV and 50 nM DNA substrate were selected for subsequent experiments. For running the assay in 1536-well format, the same protocol as described for APE1 above was followed.

[4] = test system: AP site cleavage activity of HEK 293T whole cell extract; test: Whole cell extract AP endonuclease activity assay (HEK 293T); type: biochemical, human; settings: inhibitor at 100 µM
Protocol: (§1) The radiotracer assay was performed essentially as described. In brief, prioritized candidate inhibitor compounds from the qHTS assay were incubated at various concentrations (100 µM data shown) with APE1 (100 pg) at room temperature for 15 min in 25 mM Tris pH 7.5, 25 mM NaCl, 1 mM MgCl2, 1 mM DTT and 0.01% Tween-20. At that time, 0.5 pmol ^32P-radiolabeled THF-containing 34 mer double-stranded DNA substrate was added. Incision reactions were then carried out immediately at 37°C for 10 min in a final volume of 10 µL. After the addition of an equal volume of stop buffer (0.05% bromophenol blue and xylene cynol, 20 mM EDTA, 95% formamide), the radiolabeled substrate and product were separated on a standard polyacrylamide denaturing gel and quantified by phosphorimager analysis.
(§2) HEK 293T or HeLa cells – maintained in DMEM with 10% fetal bovine serum and 1% Penicillin-Streptomycin – were harvested, washed with 1× PBS, re-suspended in cold 222 mM KCl, incubated on ice for 30 min, and clarified by centrifugation at 12,000×g for 15 min at 4°C [23]. The supernatant (whole cell extract) was retained, the protein concentration determined using the Bio-Rad Bradford reagent, and aliquots were stored at −80°C. AP endonuclease activity assays were performed with or without candidate inhibitor compounds as described above, except 60 ng HEK 293T or 80 ng of HeLa whole cell extract was used.

[5] = test system: AP site cleavage activity of HeLa whole cell extract; test: Whole cell extract AP endonuclease activity assay (HeLa); type: biochemical, human; settings: inhibitor at 100 µM
Protocol: as §1, §2

HeLa cells = test: AP site measurement in chromosomal DNA; type: cell-based, human
Protocol: HeLa cells were treated as above, except only at 5 µM inhibitor where indicated. Following exposure, chromosomal DNA was isolated and steady-state AP site levels were measured using the DNA Damage Quantification Kit from Dojindo Molecular Technologies, Inc. (Gaithersburg, MD) as previously described.

[6] = set-up: method as in PMID 7019686; settings: cited from earlier work

T1 sequence (P27695 whole entry): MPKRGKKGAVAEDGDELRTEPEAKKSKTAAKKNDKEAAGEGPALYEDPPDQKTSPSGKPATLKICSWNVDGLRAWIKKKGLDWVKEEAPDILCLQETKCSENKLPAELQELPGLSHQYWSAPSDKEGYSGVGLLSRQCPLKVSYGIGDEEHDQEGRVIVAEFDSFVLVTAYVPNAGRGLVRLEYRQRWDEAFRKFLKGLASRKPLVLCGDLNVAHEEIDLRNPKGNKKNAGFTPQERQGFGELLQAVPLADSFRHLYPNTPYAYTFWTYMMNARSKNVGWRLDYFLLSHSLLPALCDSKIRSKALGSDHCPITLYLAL

O=c1c(O)c(-c2cc(O)c(O)c(O)c2)oc2cc(O)cc(O)c12 [myricetin]
IC50 (APE1 [1]): 320 nM
IC50 (APE1 [2]): < 500 nM
IC50 [3]: 3500 nM
activity against EndoIV compared with APE1 (in words) (E. coli EndoIV): completely inactive or weakly active
IC50 (E. coli EndoIV; 2 nM EndoIV, 50 nM substrate, read-out: Endo IV IC50 (E. coli EndoIV profiling)): > 57000 nM
inhibition of total AP site cleavage activity [4]: ≥ 80%
inhibition of total AP site cleavage activity [5]: ≥ 80%
AP site damage, inhibitor alone (HeLa cells; 5 µM inhibitor alone, relative to control cells): increased AP site damage relative to the control cells
AP site damage, inhibitor plus MMS (HeLa cells; 5 µM inhibitor plus MMS): potentiated the genotoxic potential of MMS
mutagenesis in the Ames Test [6]: promote mutagenesis
